Assay results from PMC12332266 (Frontiers in Pharmacology, 2025).
Read-outs that look alike come from different tables or passages of the source.

Columns and labels:
[1] = system: hiPSC-CM (iCell Cardiomyocytes^2); assay: RTCA CardioECR assessment (impedance and electrophysiology parameters); settings: human, 72 h
Procedure, shortened: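 iCell^2 cardiomyocytes on fibronectin-coated ePlates monitored continuously by impedance for cell index, beating rate and amplitude. Field potential duration and spike amplitude were recorded from day 4–6 after monolayer formation. Data were double-normalized to DMSO control and baseline, with variability given as SD.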

[2] = system: hiPSC-CM (iCell Cardiomyocytes^2); assay: Intracellular miRNA expression by RT-qPCR in hiPSC-CM pellets after 72-hour treatment; settings: for fold induction at 0.1 µM / fold induction at 0.3 µM / fold induction at 3 µM / fold induction at 10 µM: Homo sapiens
Procedure, shortened: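 After 72-hour treatment and RTCA CardioECR assessment, total RNA from hiPSC-CM pellets was reverse transcribed, pre-amplified and quantified by TaqMan RT-qPCR against a 17-miRNA panel. Triplicates were pooled, so no statistical analysis was performed.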

[3] = system: hiPSC-CM (iCell Cardiomyocytes^2); settings: human
Method: (§1) To extract total RNA from the culture media, hiPSC-CM were plated on 24-well plates by seeding 275,000 cells per mL per well. hiPSC-CM were maintained for 7 days in 200 µL of iCell^2 Maintenance Medium (iCell^2 MM; FCDI) for the 48-well ePlate and in 1 mL for 24-well plate, before drug treatment. Culture media change was performed every 2 days.
(§2) Stock solutions were diluted 1:1000 in iCell^2 MM before treatment and equilibrated at 37°C. As vehicle control, DMSO 0.1% was added to the media. Drug treatments on biological replicates (n = 3) were refreshed daily, and culture media was collected for further miRNA analysis. After 72 h, cell pellets were collected and stored at −80°C until total RNA extraction.
(§3) hiPSC-CM culture media was collected daily from 24-well plates, and centrifuged (+4°C, 11,000 rpm) for 5 min to remove cellular debris/cells. Total RNA was extracted from 300 µL of supernatant by Trizol/Chloroform phase separation and purification of total RNA by miRNeasy 96 Kit (Qiagen, Hilden, Germany). The spike-in control cel-miR-39 (Qiagen, Hilden, Germany) was used to check the quality of samples and PCR efficiency. DNase treatment (RNase-Free DNase Set (Qiagen, Hilden, Germany)) was applied according to the manufacturer’s instructions. After the RNA extraction, the same RT-qPCR protocol as for hiPSC-CM lysate was followed. Multiple unpaired t-tests were performed to compare delta CT-values (CT-values normalized to the housekeeping miRNAs) of the treatment groups to the DMSO control.
(§4) Analysis of miRNA in the culture media of hiPSC-CM treated with structural cardiotoxicants was performed at 24-, 48- and 72-hour post-treatment. […] The treatment concentrations were selected based on the MEC for CI to ensure that the preliminary evidence of cardiotoxicity in hiPSC-CMs could potentially lead to miRNA release in the culture media.

[4] = ref extensive literature search, cited from earlier work
[5] = system: hiPSC-CM (iCell Cardiomyocytes^2); assay: miRNA in hiPSC-CM culture media by RT-qPCR at 24, 48 and 72 h post-treatment; settings: 3 µM;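 also: medium RNA quantified by RT-qPCR, CT-values normalized to housekeeping miRNAs, compared against DMSO control, doses chosen from the MEC for CI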
Method: as §1, §2, §3, §4

[6] = 72 h, read-out: hsa-miR-7-5p fold change
[7] = 72 h, read-out: hsa-miR-29a-5p fold change
[8] = 72 h, read-out: hsa-miR-126-3p fold change
[9] = 72 h, read-out: hsa-miR-133b fold change
[10] = 72 h, read-out: hsa-miR-146b-5p fold change
[11] = 72 h, read-out: hsa-miR-182-5p fold change
[12] = 72 h, read-out: hsa-miR-185-3p fold change
[13] = 72 h, read-out: hsa-miR-187-3p fold change
[14] = 72 h, read-out: hsa-miR-208b-3p fold change
[15] = 72 h, read-out: hsa-miR-365a-5p fold change

For `Cc1[nH]c(=O)c(C#N)cc1-c1ccncc1` [Milrinone], the “Field Potential Duration MEC” value [1] was 0.3 µM, the “Spike Amplitude (SA) MEC” value [1] was 0.1 µM and the “miRNAs hiPSC-CM pellet, MEC overall” value [2] was 0.1 µM. The “miRNAs upregulated at the MEC overall (hiPSC-CM pellet)” value [2] was “miR-126-3p, miR-133b, miR-146b-5p”, the fold induction at 0.1 µM [2, 6] was 1.1 and the fold induction at 0.3 µM [2, 6] was 1.1. For the same compound, the fold induction at 3 µM [2, 6] was 0.5, the fold induction at 10 µM [2, 6] was 1.3 and the fold induction at 0.1 µM [2, 7] was 0.6. It also gave a fold induction at 0.3 µM [2, 7] of 0.02, a fold induction at 10 µM [2, 7] of 0.3 and a fold induction at 0.1 µM [2, 8] of 7.7. It also gave a fold induction at 0.3 µM [2, 8] of 5.9, a fold induction at 3 µM [2, 8] of 0.4 and a fold induction at 10 µM [2, 8] of 1.7. It also gave a fold induction at 0.1 µM [2, 9] of 2.2, a fold induction at 0.3 µM [2, 9] of 2.6 and a fold induction at 3 µM [2, 9] of 3.5. It also gave a fold induction at 10 µM [2, 9] of 2.5, a fold induction at 0.1 µM [2, 10] of 3.6 and a fold induction at 0.3 µM [2, 10] of 19. For the same compound, the fold induction at 3 µM [2, 10] was 5, the fold induction at 10 µM [2, 10] was 3 and the fold induction at 0.1 µM [2, 11] was 1.9. It also gave a fold induction at 0.3 µM [2, 11] of 1.6, a fold induction at 3 µM [2, 11] of 0.9 and a fold induction at 10 µM [2, 11] of 1.3. The fold induction at 0.3 µM [2, 12] was 0.2, the fold induction at 3 µM [2, 12] was 16.3 and the fold induction at 10 µM [2, 12] was 0.9. For the same compound, the fold induction at 0.3 µM [2, 13] was 3.7, the fold induction at 3 µM [2, 13] was 1.2 and the fold induction at 10 µM [2, 13] was 3.3. It also gave a fold induction at 0.1 µM [2, 14] of 1.3, a fold induction at 0.3 µM [2, 14] of 1.8 and a fold induction at 3 µM [2, 14] of 2.1. The fold induction at 10 µM [2, 14] was 2.4, the fold induction at 0.1 µM [2, 15] was 3.7 and the fold induction at 0.3 µM [2, 15] was 4.9. The fold induction at 3 µM [2, 15] was 0.4, the fold induction at 10 µM [2, 15] was 1.1 and the “hsa-miR-7-5p fold change, intracellular” value ([2]; human, 72 h, 3 µM) was 0.5. The “hsa-miR-182-5p fold change, intracellular” value ([2]; human, 72 h, 3 µM) was 0.9, the “hsa-miR-185-3p fold change, intracellular” value ([2]; human, 72 h, 3 µM) was 16.3 and the “hsa-miR-365a-5p fold change, intracellular” value ([2]; human, 72 h, 3 µM) was 0.4. For the same compound, the “miRNAs in culture media of hiPSC-CM, in words” value [3] was “hsa-miR-7-5p and hsa-miR-126-3p, were upregulated after 72-hour exposure”, the “miRNAs in culture media of hiPSC-CM, in words” value ([3]; 3 µM) was “for hsa-miR-126-3p, upregulation was also observed after 24-hour treatment” and the Cmax total ([4]; Supplementary Table 1) was 620 to 1180 nM. For the same compound, the Cmax total ([4]; Table 1) was 620 to 1180 nM, the “hsa-miR-126-3p fold change, culture media” value ([5]; 24h) was 3.9 and the “hsa-miR-208b-3p fold change, culture media” value (from here on “hsa-miR-208b-3p fold change”) ([5]; 24h) was 6.0. For the same compound, the “hsa-miR-[…] change, culture media” value ([5]; 24h) was 3.5, the “hsa-miR-133b fold change, culture media” value ([5]; 48h) was 0.8 and the “hsa-miR-208b-3p fold change” value ([5]; 48h) was 2.8. The “hsa-miR-[…] change, culture media” value ([5]; 48h) was 1.4, the “hsa-miR-7-5p fold change, culture media” value ([5]; 72 h) was 9.1 and the “hsa-miR-126-3p fold change, culture media” value ([5]; 72 h) was 2.5. The “hsa-miR-133b fold change, culture media” value ([5]; 72 h) was 2.5, the “hsa-miR-208b-3p fold change” value ([5]; 72 h) was 0.6 and the “hsa-miR-[…] change, culture media” value ([5]; 72 h) was 4.4.
